Data taken from patent US4092313A, “Preparation of 5-fluoropyrimidin-4-one derivatives” (Taisho Pharmaceutical Company Limited, priority 1975, dated 1978).

Columns and labels:
[1] = tested on: sarcoma 180; assay: Anti-tumor effect, sarcoma 180 subcutaneously transplanted in mouse; format: in vivo; settings: oral, once daily for 7 days, tumor weighed on 10th day
Description: (§1) Cells of Ehrlich carcinoma or sarcoma 180, 5 × 10^6 in number, are subcutaneously transplanted in a mouse. Twenty-four hours after the transplantation and during a subsequent period, the compound of this invention is orally given to the test animal once every day for 7 consecutive days. On the 10th day from the transplantation, the weight of tumor in the test animal is measured to determine the percentage of inhibition achieved by the compound relative to the weight of tumor in the control group.

[2] = tested on: Ehrlich carcinoma; assay: Anti-tumor effect, Ehrlich carcinoma subcutaneously transplanted in mouse; format: in vivo; settings: oral, once daily for 7 days, tumor weighed on 10th day
Description: as §1

[3] = Acute toxicity, oral administration to mice, LD50 (method of Litchfield and Wilcoxon); format: in vivo; settings: mouse, in vivo; for LD50 at 336 h: checked 2 weeks later; for LD50 at 504 h: checked 3 weeks later; for LD50 at 72 h: checked 3 days later; for LD50 at 168 h: checked one week later, read-out: LD50, 1 Week
Text: (§2) The compound of this invention is orally administered to mice, and the mice are checked 3 days, one week, 2 weeks and 3 weeks later for motality in terms of LD50 calculated according to the method of Litchfield and Wilcoxon.

[4] = tested on: transplanted tumors; settings: literature; cited from earlier work
[5] = continued administration, clinical; cited from earlier work
[6] = tested on: mice; assay: Acute toxicity, oral administration to mice, LD50 (method of Litchfield and Wilcoxon); format: in vivo
Text: as §2

Compound	Inhibition percentage, sarcoma 180 (tumor weight relative to control) ([1]; 90 mg/kg/day) [%]	Inhibition percentage, Ehrlich carcinoma (tumor weight relative to control) ([2]; 90 mg/kg/day) [%]	LD50 at 336 h [3] [mg/kg]	LD50 at 504 h [3] [mg/kg]	LD50 at 72 h [3] [mg/kg]	LD50 at 168 h [3] [mg/kg]	inhibition of transplanted tumors [4]	Inhibition percentage, sarcoma 180 (tumor weight relative to control) ([1]; 30 mg/kg/day) [%]	side effects [5]	Inhibition percentage, Ehrlich carcinoma (tumor weight relative to control) ([2]; 30 mg/kg/day) [%]	LD50, 2 Weeks ([6]; checked 2 weeks later, 20160 min) [mg/kg]	LD50, 1 Week ([6]; checked one week later, 10080 min) [mg/kg]
O=c1[nH]c(OCc2ccccc2)ncc1F [2-Benzyloxy-5-fluoropyrimidin-4-one, 2-benzyloxy-5-fluoropyrimidin-4-one]	70	52	894	894	894	894	–	–	–	–	–	–
O=c1[nH]cc(F)c(=O)[nH]1 [5-Fluorouracil, 5-fluorouracil, reference compound]	–	–	–	–	–	–	found to inhibit transplanted tumors	64	loss of appetite, stomatitis, nausea, vomiting and like gastrointestinal disorders, leukopenia, thrombocytopenia and like disorders in the blood, disorders in the liver and kidney	61	145	200
CCCCOc1ncc(F)c(=O)[nH]1 [2-n-Butoxy-5-fluoropyrimidin-4-one, 2-n-butoxy-5-fluoropyrimidin-4-one]	62	64	945	945	945	945	–	–	–	–	–	–
